The nature of this data set: Sensitivity of the drug substance to hydrolysis. The data set is classed as physicochemical. Particulars: especially at low pH. The source says: Any formulation containing both organic acid as well as drug substance in close contact is therefore at a very high risk to decomposition, particularly in the presence of humidity. Therefore e.g. tartaric acid and active ingredient are kept separate in the formulation until the moment of application. A multiparticulate pellet approach is chosen. The drug substance is layered from an isopropanolic suspension onto seal coated spherical tartaric acid starter cores with approximately 0.6-0.8 mm diameter (FIG. 3 Structure of dabigatran etexilate pellets'.

As to `CCCCCCOC(=O)N=C(N)c1ccc(NCc2nc3cc(C(=O)N(CCC(=O)OCC)c4ccccn4)ccc3n2C)cc1` [Dabigatran etexilate mesilate, dabigatran etexilate methansulfonate], the sensitivity to hydrolysis result is given as “sensitive to hydrolysis especially at low pH”.

The values are drawn from US20130183384A1, “IMMEDIATE RELEASE MULTI UNIT PELLET SYSTEM” (BOEHRINGER INGELHEIM INTERNATIONAL GMBH, priority 2011, published 2013).
